Here are results for 1 molecule from US20160031796A1, “ANTIMUSCARINIC COMPOUND HAVING A LOW CONTENT OF IMPURITIES” (Dipharma Francis S.r.l., priority 2014, published 2016).

Structures can show the parent of a compound that is named as a salt.

For data set [1] the following is noted: Fesoterodine fumarate obtained as disclosed in EP 2 251 318 (prior art); cited from earlier work.
Data set [2] can be described thus: stability studies of Fesoterodine fumarate samples under various temperature and humidity conditions, HPLC analysis. Type of data set: physicochemical. The source says: Various samples of Fesoterodine fumarate salt of formula (I) have been taken from a batch of product, obtained using the process of the present invention, having a HPLC purity exceeding 99.8% and a content of the impurities of formulas (II), (III), (IV), (V), (VI) or (VII) of less than 0.10%, calculated as HPLC Area %, and completely free of impurities of formula (VIII) and (IX). Some of the samples taken were also micronized to reduce the particle size, both the samples directly taken from the sample batch and the micronized samples have been subjected to stability studies under various temperature and humidity conditions for up to 90 days.
An example of the conditions used in the stability studies were 40° C. with 75% relative humidity and 25° C. with 60% relative humidity.

Consider `CC(C)C(=O)Oc1ccc(CO)cc1[C@H](CCN(C(C)C)C(C)C)c1ccccc1` [Fesoterodine fumarate, (R)-2-(3-diisopropylamino-1-phenylpropyl)-4-(hydroxymethyl)phenol isobutyrate], for which the “impurity of formula (VI) generated over time” value in data set [1] was over 1%. Further, the “formation of impurities of formula (VIII) and/or (IX)” value in data set [2] (HPLC analysis, any of the conditions used, up to 90 days, e.g. 40° C./75% RH and 25° C./60% RH) is given as “has not shown the formation”. In addition, in data set [2] (after 90 days under various temperature and humidity conditions), the “increase in the content of impurities of formula (VI), (VII), (VIII) or (IX) over time” value was “did not show any increase”. Moreover, the “stability of micronized sample on storage” value in data set [2] (micronized, maintained for 3 months at 4° C.) was “completely unaltered”. Moreover, the “impurities content of formula (VI) and/or (VII)” value in data set [2] (stability studies up to 90 days, e.g. 40° C. with 75% relative humidity and 25° C. with 60% relative humidity, batch samples and micronized samples) was “less than 0.10 % (HPLC Area %)”.
